Measured values from patent publication US9862680B2, “Peripherally substituted monocyclic beta-lactams” (University of Notre Dame du Lac, priority 2016, dated 2018).

Columns and labels:
[1] = tested on: panel of Gram-positive and Gram-negative bacteria; test: Kirby-Bauer agar diffusion assays, results in words; format: cell-based
Method: (§1) Antibacterial activity of the compounds was determined by a modified Kirby-Bauer^27-28 agar-diffusion assay. Overnight cultures of test organisms were grown in LB broth for 18-24h and standard suspensions of […] were prepared in saline solution (0.9% NaCl) according to a 0.5 BaSO4 McFarland Standard. This standardized suspension (0.1 mL) was added to 34 mL of sterile, Mueller Hinton No. 2 agar tempered to 47-50° C. After gentle mixing, the inoculated agar media was poured into a sterile plastic petri dish (145 mm×20 mm) and allowed to solidify near a flame with the lid cracked for 30 min. Wells of 9.0 mm diameter were cut from the petri dish agar and filled with exactly 50 μL of the test sample solution. For studies using mixtures of compounds, both test compounds were diluted to equal concentrations and 50 μL of the mixed compound solution was added to the cut well. The petri dish was incubated at 37° C. for 18-24 h and the inhibition zone diameters were measured (mm) with an electronic caliper after 24-48 h.
(§2) All compound-containing solutions were prepared by first making a 20 mM solution of the compound in DMSO and then diluting that solution 10-fold with MeOH to give the final 2 mM solution used in the assay.
(§3) Plates were incubated after inoculation at 37° C. for 20 hours. Plates were photographed after 1 day. M. vaccae required a longer incubation time, 48 hours, and was photographed after 3 days.

[2] = tested on: S. Aureus SG511; test: Agar diffusion assay (modified Kirby-Bauer); format: cell-based; conditions: 2 mM solution, 50 μL in 9.0 mm well, P unclear, V very unclear zone, * slightly misshapen zone; for zone of inhibition at 2000 µM: Staphylococcus aureus, read-out: Zone of Growth Inhibition
Method: as §1, §2, §3

[3] = tested on: B. Subtilis ATCC 6633; test: Agar diffusion assay (modified Kirby-Bauer); format: cell-based; conditions: 50 μL in 9.0 mm well, P unclear, V very unclear zone, * slightly misshapen zone; for Zone of Growth Inhibition: 2 mM solution
Method: as §1, §2, §3

[4] = tested on: P. Aeruginosa K799/wt; test: Agar diffusion assay (modified Kirby-Bauer); format: cell-based; conditions: P. Aeruginosa K799/wt (wild type), 2 mM solution, 50 μL in 9.0 mm well, P unclear, V very unclear zone, * slightly misshapen zone
Method: as §1, §2, §3

[5] = tested on: E. Coli DC0; test: Agar diffusion assay (modified Kirby-Bauer); format: cell-based; conditions: 2 mM solution, 50 μL in 9.0 mm well, P unclear, V very unclear zone, * slightly misshapen zone; for zone of inhibition at 2000 µM: Escherichia coli, read-out: Zone of Growth Inhibition
Method: as §1, §2, §3

[6] = tested on: B. Dolosa AU 0018; test: Agar diffusion assay (modified Kirby-Bauer); format: cell-based; conditions: 2 mM solution, 50 μL in 9.0 mm well, P unclear, V very unclear zone, * slightly misshapen zone; for zone of inhibition at 2000 µM: Burkholderia dolosa, read-out: Zone of Growth Inhibition
Method: as §1, §2, §3

[7] = tested on: A. Baumannii ATCC 17961; test: Agar diffusion assay (modified Kirby-Bauer); format: cell-based; conditions: 50 μL in 9.0 mm well, P unclear, V very unclear zone, * slightly misshapen zone; for Zone of Growth Inhibition: 2 mM solution
Method: as §1, §2, §3

[8] = tested on: M. Vaccae IMET 10670; test: Agar diffusion assay (modified Kirby-Bauer); format: cell-based; conditions: 2 mM solution, 50 μL in 9.0 mm well, 48 hours incubation, P unclear, V very unclear zone, * slightly misshapen zone; for zone of inhibition at 2000 µM: Mycolicibacterium vaccae, read-out: Zone of Growth Inhibition
Method: as §1, §2, §3

[9] = tested on: E. Coli DC2; test: Agar diffusion assay (modified Kirby-Bauer); format: cell-based
Method: as §1, §2, §3

[10] = tested on: M. Luteus ATCC 10240; test: Agar diffusion assay (modified Kirby-Bauer); format: cell-based
Method: as §1, §2, §3

[11] = tested on: panel of Gram-positive and Gram-negative bacteria; test: MIC determination; format: cell-based; conditions: same panel of Gram-positive and Gram-negative bacteria, all values
[12] = tested on: P. Aeruginosa K799/61; test: Agar diffusion assay (modified Kirby-Bauer); format: cell-based; conditions: for Zone of Growth Inhibition: P. Aeruginosa K799/61 (permeability mutant), 2 mM solution, 50 μL in 9.0 mm well, P unclear, V very unclear zone, * slightly misshapen zone
Method: as §1, §2, §3

[13] = target: T1, NDM-1 (Klebsiella pneumoniae, UniProt C7C422); test: β-lactamase inhibition, Ki by enzyme kinetics (imipenem); format: biochemical; conditions: NDM-1, class B
T1 construct: purchased Emerald Bioscience
Method: (§4) The enzymes KPC-2, Oxa-48, AmpC and NDM-1 were purchased from Emerald Bioscience and the enzymes CTX-14 and SHV-12 were expressed and purified from E. coli at Rempex pharmaceutical (San Diego, Calif.).
(§5) To the first row of a 2-mL deep 96-well block was added 1 mL of 50 mM sodium phosphate buffer at pH 7 with 0.1 mg/mL BSA (bovine serum albumin). To the first row was added an appropriate amount of a 10 mg/mL solution of the compound to be tested to make a 640 μM (4×) solution. Each of the other wells in the 96-well block were charged with 750 μL of the aforementioned buffer. The rows were then repeatedly diluted 1:3 so that the final concentrations of the individual 96-well plates would range in concentrations from 160 μM to 3 nM (8 dilutions). The master block was then used to add 50 pt to each corresponding well in the 96-well flat-bottom plate. An additional 50 of buffer was added to each well. Once the plates were prepared, 50 μL of the enzyme to be tested against were added in buffer to each well [KPC-2 (0.147 mg/mL), CTX-M-14 (0.102 mg/mL), […] (0.331 mg/mL), AmpC (0.699 mg/mL), SHV-12 (0.111 mg/mL), NDM-1 (0.110 mg/mL)]. The plates were incubated at rt for 10 min before 50 μL. of an appropriate indicator were added to each well and the optical density at 495 nm was measured over time. For each enzyme, other than NDM-1, nitrocefin was used. Nitrocefin (10 μM for SHV-12, 50 μM for the other enzymes), was appropriate because when cleaved by a β-lactamase, the color changes from yellow to red. For NDM-1, imipenem (10 μM) was the indicator of choice. Rather than observe the growing presence of optical density at 495 nm, as with nitrocefin, the disappearance of imipenem was monitored. The inhibition curves were monitored and used to perform enzyme kinetics according to Waley to determine the Ki (μM) of each compound against the β-lactamases screened.

[14] = target: T2, KPC-2 (Klebsiella pneumoniae, UniProt Q9F663); test: β-lactamase inhibition, Ki by enzyme kinetics (nitrocefin); format: biochemical; conditions: KPC-2, class A
T2 construct: purchased Emerald Bioscience
Method: as §4, §5

[15] = target: T3, SHV-12 (Klebsiella pneumoniae, UniProt P0AD64, E235K/G234S/L31Q); test: as above; format: biochemical; conditions: SHV-12, class A
T3 construct: host or cells: E. coli
Method: as §4, §5

[16] = target: AmpC; test: as above; format: biochemical; conditions: class C
Method: as §4, §5

[17] = target: T4, CTX-M-14 (Escherichia coli, UniProt Q9L5C7); test: as above; format: biochemical; conditions: CTX-M-14, class A
T4 construct: host or cells: E. coli
Method: as §4, §5

[18] = target: T5, Oxa-48 (Klebsiella pneumoniae, UniProt Q6XEC0); test: as above; format: biochemical; conditions: Oxa-48, class D
T5 construct: purchased Emerald Bioscience
Method: as §4, §5

[19] = target: PAM 2035; test: β-lactamase inhibition, Ki by enzyme kinetics; format: biochemical; conditions: PAM 2035, class C
[20] = E. Coli DC2, 2 mM solution, 50 μL in 9.0 mm well, P unclear, V very unclear zone, * slightly misshapen zone
[21] = M. Luteus ATCC 10240, 2 mM solution, 50 μL in 9.0 mm well, P unclear, V very unclear zone, * slightly misshapen zone
[22] = Pseudomonas aeruginosa, read-out: Zone of Growth Inhibition

T3 sequence (P0AD64 22-286 L31Q/G234S/E235K): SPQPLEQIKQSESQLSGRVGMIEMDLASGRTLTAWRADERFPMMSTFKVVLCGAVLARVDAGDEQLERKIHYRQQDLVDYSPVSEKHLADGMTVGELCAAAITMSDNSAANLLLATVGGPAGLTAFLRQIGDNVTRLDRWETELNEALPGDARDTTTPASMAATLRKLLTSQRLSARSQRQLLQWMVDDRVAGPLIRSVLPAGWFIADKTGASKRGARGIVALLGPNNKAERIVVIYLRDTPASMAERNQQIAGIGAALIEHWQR
T5 sequence (Q6XEC0 23-265 limits assumed): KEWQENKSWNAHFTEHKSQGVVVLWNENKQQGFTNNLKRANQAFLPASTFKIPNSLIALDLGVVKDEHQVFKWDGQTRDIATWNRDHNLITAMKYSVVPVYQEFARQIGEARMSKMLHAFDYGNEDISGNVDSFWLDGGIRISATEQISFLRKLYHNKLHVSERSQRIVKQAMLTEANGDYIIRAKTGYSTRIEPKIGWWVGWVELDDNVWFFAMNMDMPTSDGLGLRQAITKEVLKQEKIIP
T2 sequence (Q9F663 25-293 limits assumed): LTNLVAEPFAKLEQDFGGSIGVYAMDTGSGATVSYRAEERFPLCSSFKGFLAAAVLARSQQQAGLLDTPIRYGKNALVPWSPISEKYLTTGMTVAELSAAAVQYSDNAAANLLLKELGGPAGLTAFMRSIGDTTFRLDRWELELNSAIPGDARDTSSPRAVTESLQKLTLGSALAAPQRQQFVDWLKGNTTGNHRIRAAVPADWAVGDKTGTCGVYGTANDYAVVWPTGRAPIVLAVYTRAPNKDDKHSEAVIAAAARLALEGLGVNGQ
T4 sequence (Q9L5C7 entry or part of it): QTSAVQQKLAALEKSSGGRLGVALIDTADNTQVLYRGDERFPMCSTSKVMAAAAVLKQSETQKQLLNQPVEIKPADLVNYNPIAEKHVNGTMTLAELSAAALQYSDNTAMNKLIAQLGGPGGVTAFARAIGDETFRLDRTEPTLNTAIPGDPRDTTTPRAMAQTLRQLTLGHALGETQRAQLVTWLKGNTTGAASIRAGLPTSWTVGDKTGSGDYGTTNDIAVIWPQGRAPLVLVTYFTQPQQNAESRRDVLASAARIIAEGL
T1 sequence (C7C422 29-270 limits assumed): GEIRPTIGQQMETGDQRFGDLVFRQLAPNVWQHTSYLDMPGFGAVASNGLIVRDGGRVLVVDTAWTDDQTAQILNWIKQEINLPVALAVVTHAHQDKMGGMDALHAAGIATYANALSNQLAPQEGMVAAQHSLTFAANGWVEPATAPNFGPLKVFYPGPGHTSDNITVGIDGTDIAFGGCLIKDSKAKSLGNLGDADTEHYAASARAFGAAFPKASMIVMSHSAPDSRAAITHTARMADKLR

SMILES | Zone of Growth Inhibition [2] | Zone of Growth Inhibition [3] | Zone of Growth Inhibition [4] | Zone of Growth Inhibition [5] [mm] | Zone of Growth Inhibition [6] [mm] | Zone of Growth Inhibition [7] | Zone of Growth Inhibition [8] | Zone of Growth Inhibition [9, 20] | Zone of Growth Inhibition [10, 21] | Zone of Growth Inhibition [12] | other results
COC(=O)CSCC1C(NC(=O)Cc2ccccc2)C(=O)N1S(=O)(=O)[O-].[K+] (racemic) [Compound 29] |  |  |  |  |  |  |  |  |  |  | antibacterial activity ([1]; agar diffusion, overall): did not show any activity
CC(C)(ON=C(C(=O)NC1C(=O)N(S(=O)(=O)[O-])C1CSCCN)c1cnc(N)s1)C(=O)O.[K+] (racemic) [Compound 48] | 0 mm | 0 mm | 18P | 26 | 15 | 12P | 0 mm | 28 mm | 26P |  | antibacterial activity against Gram-negative bacteria ([1]; agar diffusion, Gram-negative bacteria): very interesting activity; antibacterial activity ([10]; on the Gram-positive M. luteus): very interesting activity
CO/N=C(\C(=O)N[C@@H]1C(=O)N(S(=O)(=O)[O-])[C@H]1CSCCNC(=O)OC(C)(C)C)c1cnc(N)s1.[K+] [Compound 43] |  |  | 0ppt |  |  |  |  |  |  |  | MIC [11]: > 50 µM; antibacterial activity ([1]; against B. subtilis and the permeability mutant forms of P. aeruginosa and E. coli): moderate activity; antibacterial activity ([1]; corresponding wild strains of P. aeruginosa and E. coli): inactivity; zone of inhibition at 2000 µM [2]: 0 mm; zone of inhibition at 2000 µM ([3]; Bacillus subtilis, ATCC6633, 2 mM solution, read-out: Zone of Growth Inhibition): 18 mm; zone of inhibition at 2000 µM [5]: 0 mm; zone of inhibition at 2000 µM [6]: 0 mm; zone of inhibition at 2000 µM ([7]; Acinetobacter baumannii, ATCC17961, 2 mM solution, read-out: Zone of Growth Inhibition): 0 mm; zone of inhibition at 2000 µM [8]: 0 mm; zone of inhibition at 2000 µM ([9]; Escherichia coli, E. Coli DC2, 2 mM solution, 50 μL in 9.0 mm well, P unclear, V very unclear zone, * slightly misshapen zone, read-out: Zone of Growth Inhibition): 29 mm; zone of inhibition at 2000 µM ([10]; Micrococcus luteus, ATCC10240, M. Luteus ATCC 10240, 2 mM solution, 50 μL in 9.0 mm well, P unclear, V very unclear zone, * slightly misshapen zone, read-out: Zone of Growth Inhibition): 0 mm
CO/N=C(\C(=O)N[C@@H]1C(=O)N(S(=O)(=O)[O-])[C@H]1CSCCN)c1cnc(N)s1.[K+] [Compound 44] |  | 16V |  |  |  |  |  |  | 14 s |  | MIC [11]: > 50 µM; antibacterial activity ([1]; against B. subtilis, M. luteus, A. baumannii and the permeability mutant strains of P. aeruginosa and E. coli): moderately active; zone of inhibition at 2000 µM [2]: 0 mm; zone of inhibition at 2000 µM [4, 22]: 0 mm; zone of inhibition at 2000 µM [5]: 23 mm; zone of inhibition at 2000 µM [12, 22]: 14 mm; zone of inhibition at 2000 µM [6]: 0 mm; zone of inhibition at 2000 µM [8]: 0 mm; antibacterial activity ([9]; against E. coli DC2, called wild type in the text): active
CC(C)c1cc(C(C)C)c(S(=O)(=O)ON2C(=O)CC2CBr)c(C(C)C)c1 (stereo not drawn) [Compound 61d] |  |  | 0 mm | 0 | 0 | 0 mm |  | 0 mm |  | 0 mm | Ki [13]: > 160 µM; Ki [14]: > 160 µM; Ki [15]: > 160 µM; Ki [16]: > 160 µM; Ki [17]: > 160 µM; Ki [18]: > 160 µM; Ki [19]: > 160 µM
O=C1CC(CBr)N1OS(=O)(=O)c1ccc([N+](=O)[O-])cc1 (stereo not drawn) [Compound 61e] | 0 mm |  | 0 mm | 0 | 0 | 0 mm | 0 mm | 0 mm | 0 mm | 12.6* mm | 
O=C1CC(CBr)N1OS(=O)(=O)c1ccc([N+](=O)[O-])cc1[N+](=O)[O-] (stereo not drawn) [Compound 61f] | 21P | 22 mm | 0 mm | 0 | 0 | 16V | 28 mm | 16P | 18P | 0 mm | 
Cc1ccc(S(=O)(=O)ON2C(=O)CC2CBr)cc1 (stereo not drawn) [Compound 61g] | 18V | 0 mm | 0 mm | 0 | 0 | 13.5 mm | 19V | 0 mm | 16P | 0 mm | 
CN(C)c1cccc2c(S(=O)(=O)ON3C(=O)CC3CBr)cccc12 (stereo not drawn) [Compound 61h] | 15* mm |  | 0 mm | 0 | 0 | 0 mm |  | 0 mm |  | 0 mm | 
